Laboratory results as given in patent publication US20200131156A1, “ARYLSULFONYLPYROLECARBOXAMIDE DERIVATIVES AS Kv3 POTASSIUM CHANNEL ACTIVATORS” (H. Lundbeck A/S, priority 2018, published 2020).

Biological target: T1, hKv3.1b (Homo sapiens, UniProt P48547)
T1 construct: expressed in transfected cells
T1 sequence (P48547 1-585 isoform P48547-2): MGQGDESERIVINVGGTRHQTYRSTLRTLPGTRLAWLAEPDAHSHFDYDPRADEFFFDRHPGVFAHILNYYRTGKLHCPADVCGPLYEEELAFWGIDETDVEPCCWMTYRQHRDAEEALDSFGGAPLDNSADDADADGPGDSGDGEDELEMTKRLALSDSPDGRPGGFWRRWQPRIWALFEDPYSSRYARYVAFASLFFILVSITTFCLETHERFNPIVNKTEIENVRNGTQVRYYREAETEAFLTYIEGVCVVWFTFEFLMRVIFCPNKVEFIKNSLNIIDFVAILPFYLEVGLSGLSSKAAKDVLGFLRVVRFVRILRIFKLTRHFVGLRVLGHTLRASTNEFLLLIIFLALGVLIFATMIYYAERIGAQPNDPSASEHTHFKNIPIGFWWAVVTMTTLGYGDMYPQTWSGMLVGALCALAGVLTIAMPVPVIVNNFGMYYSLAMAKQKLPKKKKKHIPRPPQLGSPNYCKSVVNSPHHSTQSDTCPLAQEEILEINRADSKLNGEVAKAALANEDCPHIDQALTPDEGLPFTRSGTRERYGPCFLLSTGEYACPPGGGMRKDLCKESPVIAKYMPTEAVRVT
Experiment: Automated patch clamp (QPatch-16x) on HEK-293 cells stably expressing hKv3.1b
Type: cell-based
Conditions: for ECdelta5 mV: concentration needed to shift the activation threshold 5 mV; for Threshold Shift: maximum absolute hyperpolarizing shift of activation threshold at tested concentrations 0.37-30 μM
Method: HEK-293 cells stably expressing hKv3.1b were used for the experiments. Cells were cultured in DMEM medium supplemented with 10% Fetal Bovine Serum, 100 ug/mL Geneticidin and 100 u/mL Penicillin/Streptomycin (all from Gibco). Cells were grown to 80-90% confluency at 37° C. and 5% CO2. On the day of the experiment the cells were detached from the tissue culture flasks by Detachin, resuspended in serum free medium containing 25 mM HEPES and transferred to the cell hotel of the QPatch. The cells were used for experiments 0-5 hours after detachment.
Patch-clamp recordings were performed using the automated recording system QPatch-16x (Sophion Bioscience, Denmark). Cells were centrifuged, SFM removed and the cells were resuspended in extracellular buffer containing (in mM): 145 NaCl, 4 KCl, 1 MgCl2, 2 CaCl2, 10 HEPES and 10 glucose (added fresh on the day of experiment); pH 7.4 adjusted with NaOH, 305 mOsm adjusted with sucrose.
Single cell whole-cell recordings were carried out using an intracellular solution containing (in mM): 120 KCl, 32.25/10 KOH/EGTA, 5.374 CaCl2, 1.75 MgCl2, 10 HEPES, 4 Na2ATP (added fresh on the day), pH 7.2 adjusted with KOH, […] adjusted with sucrose. Cell membrane potentials were held at −80 mV and currents were evoked by voltage steps (200 ms duration) from −70 mV to +10 mV (in 10 mV increments). Vehicle (0.33% DMSO) or increasing concentration of compound (I) were applied and the voltage protocol was run 3 times (resulting in 3 min cpd incubation time). Five increasing concentrations of compound (I) were applied to each cell.
Leak subtraction protocol was applied at −33% of the sweep amplitude, and serial resistance values were constantly monitored.
Any cell where serial resistance exceeded 25 MOhm, membrane resistance less than 200 MOhm or current size at −10 mV less than 200 pA was eliminated from the subsequent analysis.
Data analysis was performed using Sophion's QPatch assay software in combination with Microsoft Excel™ (Redmond, Wash., USA). Current voltage relationships were plotted from the peak current at the individual voltage steps normalized to the vehicle addition at 10 mV. The voltage threshold for channel activation was defined as 5% activation of the peak current at 10 mV in presence of vehicle. The activity of the compounds was described as the ability to shift this current voltage relationship to more hyperpolarized potentials and is given as the maximum absolute shift possible at the tested concentrations (0.37, 1.11, 3.33, 10, 30 μM). Concentration response curves were plotted from the threshold shift at the individual concentrations and were fitted excel fit model 205 sigmoidal dose-response model (fit=A+((B−A)/1+((C/x)^D)))), where A is the minimum value, B the maximum value, C the EC50 value and D the slope of the curve. The concentration needed to shift the threshold 5 mV was readout from this curve (ECdelta5 mV).

| Compound | ECdelta5 mV [nM] | Threshold Shift [mV] |
| --- | --- | --- |
| Cc1ccc(S(=O)(=O)n2ccc(C(=O)NCc3nnc(C)o3)c2)cc1 [Compound 31, N-[(5-methyl-1,3,4-oxadiazol-2-yl)methyl]-1-(p-tolylsulfonyl)pyrrole-3-carboxamide] | 9600 | 13 |
| Cc1ccc(S(=O)(=O)n2ccc(C(=O)NCc3ncc(C)o3)c2)cc1 [Compound 33, N-[(5-methyloxazol-2-yl)methyl]-1-(p-tolylsulfonyl)pyrrole-3-carboxamide] | 2200 | 15 |
| Cc1ccc(S(=O)(=O)n2ccc(C(=O)NCc3nc(C)cs3)c2)cc1 [Compound 34, N-[(4-methylthiazol-2-yl)methyl]-1-(p-tolylsulfonyl)pyrrole-3-carboxamide] | 1100 | 18 |
| Cc1ccc(S(=O)(=O)n2ccc(C(=O)NCc3cc(C)no3)c2)cc1 [Compound 35, N-[(3-methylisoxazol-5-yl)methyl]-1-(p-tolylsulfonyl) pyrrole-3-carboxamide] | 1100 | 21 |
| Cc1ccc(S(=O)(=O)n2ccc(C(=O)NCc3cnn(C)c3)c2)cc1 [Compound 37, N-[(1-methylpyrazol-4-yl)methyl]-1-(p-tolylsulfonyl) pyrrole-3-carboxamide] | 1800 | 22 |
| Cc1ccc(S(=O)(=O)n2ccc(C(=O)NCc3cnc(C)o3)c2)cc1 [Compound 38, N-[(2-methyloxazol-5-yl)methyl]-1-(p-tolylsulfonyl)pyrrole-3-carboxamide] | 4600 | 13 |
| Cc1ccc(S(=O)(=O)n2ccc(C(=O)NCc3ncc(C)s3)c2)cc1 [Compound 39, N-[(5-methylthiazol-2-yl)methyl]-1-(p-tolylsulfonyl)pyrrole-3-carboxamide] | 1600 | 17 |
| Cc1ccc(S(=O)(=O)n2ccc(C(=O)NCc3cn(C)nn3)c2)cc1 [Compound 41, N-[(1-methyltriazol-4-yl)methyl]-1-(p-tolylsulfonyl)pyrrole-3-carboxamide] | 3100 | 17 |
| Cc1ccc(S(=O)(=O)n2ccc(C(=O)NCc3ncn(C)n3)c2)cc1 [Compound 42, N-[(1-methyl-1,2,4-triazol-3-yl)methyl]-1-(p-tolylsulfonyl)pyrrole-3-carboxamide] | 1700 | 25 |
| Cc1ccc(S(=O)(=O)n2ccc(C(=O)NCc3nc(C)no3)c2)cc1 [Compound 43, N-[(3-methyl-1,2,4-oxadiazol-5-yl)methyl]-1-(p-tolylsulfonyl)pyrrole-3-carboxamide] | 1700 | 23 |
| Cc1cnc(CNC(=O)c2ccn(S(=O)(=O)c3ccccc3)c2)cn1 [Compound 48, 1-(benzenesulfonyl)-N-[(5-methylpyrazin-2-yl)methyl]-1H-pyrrole-3-carboxamide] | 2300 | 18 |
| Cc1ccc(S(=O)(=O)n2ccc(C(=O)NCc3nccs3)c2)cc1 [Compound 51, 1-(4-methylbenzene-1-sulfonyl)-N-[(1,3-thiazol-2-yl)methyl]-1H-pyrrole-3-carboxamide] | 2400 | 14 |
| Cc1ccc(S(=O)(=O)n2ccc(C(=O)NCc3cnsc3)c2)cc1 [Compound 55, 1-(4-methylbenzene-1-sulfonyl)-N-[(1,2-thiazol-4-yl)methyl]-1H-pyrrole-3-carboxamide] | 1500 | 15 |

Further lines, results first:

| ECdelta5 mV [nM] | Threshold Shift [mV] | Compound |
| --- | --- | --- |
| 1300 | 16 | Cc1ccc(S(=O)(=O)n2ccc(C(=O)NCc3cc(C)on3)c2)cc1 [Compound 32, N-[(5-methylisoxazol-3-yl)methyl]-1-(p-tolylsulfonyl) pyrrole-3-carboxamide] |
| 810 | 27 | Cc1ccc(S(=O)(=O)n2ccc(C(=O)NCc3ccn(C)n3)c2)cc1 [Compound 36, N-[(1-methylpyrazol-3-yl)methyl]-1-(p-tolylsulfonyl) pyrrole-3-carboxamide] |
| 2000 | 22 | Cc1ccc(S(=O)(=O)n2ccc(C(=O)NCc3cn(C)cn3)c2)cc1 [Compound 40, N-[(1-methylimidazol-4-yl)methyl]-1-(p-tolylsulfonyl)pyrrole-3-carboxamide] |
| 2300 | 12 | Cc1ccc(S(=O)(=O)n2ccc(C(=O)NCc3coc(C)n3)c2)cc1 [Compound 47, 1-(4-methylbenzene-1-sulfonyl)-N-[(2-methyl-1,3-oxazol-4-yl)methyl]-1H-pyrrole-3-carboxamide] |
| 2100 | 13 | Cc1ccc(S(=O)(=O)n2ccc(C(=O)NCc3cscn3)c2)cc1 [Compound 49, 1-(4-methylbenzene-1-sulfonyl)-N-[(1,3-thiazol-4-yl)methyl]-1H-pyrrole-3-carboxamide] |
| 3300 | 13 | Cc1ccc(S(=O)(=O)n2ccc(C(=O)NCc3cnco3)c2)cc1 [Compound 50, 1-(4-methylbenzene-1-sulfonyl)-N-[(1,3-oxazol-5-yl)methyl]-1H-pyrrole-3-carboxamide] |
| 2500 | 13 | Cc1ccc(S(=O)(=O)n2ccc(C(=O)NCc3ccon3)c2)cc1 [Compound 52, 1-(4-methylbenzene-1-sulfonyl)-N-[(1,2-oxazol-3-yl)methyl]-1H-pyrrole-3-carboxamide] |
| 2300 | 15 | Cc1ccc(S(=O)(=O)n2ccc(C(=O)NCc3ccno3)c2)cc1 [Compound 53, 1-(4-methylbenzene-1-sulfonyl)-N-[(1,2-oxazol-5-yl)methyl]-1H-pyrrole-3-carboxamide] |
| 2000 | 15 | Cc1ccc(S(=O)(=O)n2ccc(C(=O)NCc3cocn3)c2)cc1 [Compound 54, 1-(4-methylbenzene-1-sulfonyl)-N-[(1,3-oxazol-4-yl)methyl]-1H-pyrrole-3-carboxamide] |
| 6800 | 14 | Cc1ccc(S(=O)(=O)n2ccc(C(=O)NCc3nncs3)c2)cc1 [Compound 56, 1-(4-methylbenzene-1-sulfonyl)-N-[(1,3,4-thiadiazol-2-yl)methyl]-1H-pyrrole-3-carboxamide] |
| 3600 | 14 | Cc1ccc(S(=O)(=O)n2ccc(C(=O)NCc3ncon3)c2)cc1 [Compound 57, 1-(4-methylbenzene-1-sulfonyl)-N-[(1,2,4-oxadiazol-3-yl)methyl]-1H-pyrrole-3-carboxamide] |
